{"source": "patent US9539243B2", "about": "“Triazole compounds that modulate HSP90 activity” (Synta Pharmaceuticals Corp., priority 2008, dated 2017)", "tested_on": "Her2", "test": "Her2 degradation in BT-474 cells by Western blot (Method 1)", "assay_type": "cell-based, Human", "conditions": "0.5 μM, overnight", "procedure": "Human high-Her2 breast carcinoma BT474 (HTB-20), SK-BR-3 (HTB-30) and MCF-7 breast carcinoma (HTB-22) from American Type Culture Collection, Va., USA were grown in Dulbecco's modified Eagle's medium with 4 mM L-glutamine and antibiotics (100 IU/ml penicillin and 100 μg/ml streptomycine; GibcoBRL). To obtain exponential cell growth, cells were trypsinized, counted and seeded at a cell density of 0.5×10^6 cells/ml regularly, every 3 days. All experiments were performed on day 1 after cell passage.\nBT-474 cells are treated with 0.5 μM, 2 μM, or 5 μM of 17AAG (a positive control) or 0.5 μM, 2 μM, or 5 μM of a compound of the invention overnight in DMEM medium. After treatment, each cytoplasmic sample is prepared from 1×10^6 cells by incubation of cell lysis buffer (#9803, Cell Signaling Technology) on ice for 10 minutes. The resulting supernatant used as the cytosol fractions is dissolved with sample buffer for SDS-PAGE and run on a SDS-PAGE gel, blotted onto a nitrocellulose membrane by using semi-dry transfer. Non-specific binding to nitrocellulose is blocked with 5% skim milk in TBS with 0.5% Tween at room temperature for 1 hour, then probed with anti-Her2/ErB2 mAb (rabbit IgG, #2242, Cell Signaling) and anti-Tubulin (T9026, Sigma) as housekeeping control protein. […]"}
{"compound": "C=CCNC1=C2C[C@@H](C)C[C@H](OC)[C@H](O)[C@@H](C)/C=C(\\C)[C@H](OC(N)=O)[C@@H](OC)/C=C\\C=C(/C)C(=O)NC(=CC1=O)C2=O", "note": "[Compound 17AAG, 17-allylamino-17-demethoxygeldanamycin]", "values": [{"measurement": "degradation of Her2", "result": "partial degradation of Her2"}]}
